# Reference: patent publication US9617244B2, “Antibacterial quinoline derivatives” (JANSSEN PHARMACEUTICA NV, priority 2012, dated 2017)
# Test system: Staphylococcus aureus (ATCC29213)
# Experiment: In-vitro anti-bacterial activity, microtitre plate assay, IC90 determination (non-mycobacterial strains)
# Assay type: cell-based
# Conditions: 90% inhibitory concentration for bacterial growth, 24 hours, resazurin fluorescence
# Outline: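 Growth inhibition measured fluorometrically with resazurin (530/590 nm) after overnight 37 °C incubation under normal atmosphere. Bacteria added at roughly 100 TCID50 per well in Mueller-Hinton broth to five-fold compound dilution series; IC90 reported in μg/ml.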
row,IC90 STA B29213 [µg/mL],Compound
1,15.31,CS(=O)(=O)c1ccc2[nH]c(=O)c(C(c3cccc(Cl)c3)C3(O)CCNC(Cc4ccc(F)cc4F)C3)cc2c1 (stereo not drawn) [Compound 328]
2,7.27,CSc1ccc2[nH]c(=O)c(C(c3cccc(Cl)c3)C3(O)CCNC(Cc4ccc(F)cc4F)C3)cc2c1 (stereo not drawn) [Compound 329]
3,1.06,COc1nc2ccc(F)cc2cc1C(c1ccc(Cl)cc1)C1(O)CCNC(c2ccc(F)cc2C)C1 (stereo not drawn) [Compound 331]
4,8.87,CSc1ccc2[nH]c(=O)c(C(c3ccc(Cl)cc3)C3(O)CCNC(Cc4ccc(F)cc4)C3)cc2c1 (stereo not drawn) [Compound 334]
5,3.51,O=c1[nH]c2ccc(Br)cc2cc1C(c1ccc(Cl)cc1)C1(O)CCNCC1Cc1cccc(F)c1 (stereo not drawn) [Compound 336]
6,2.36,O=c1[nH]c2ccc(Br)cc2cc1C(c1ccc(Cl)cc1)C1(O)CCNC(Cc2ccc(F)cc2)C1 (stereo not drawn) [Compound 341]
7,7.46,O=c1[nH]c2ccc(Br)cc2cc1C(c1ccc(Cl)cc1)C1(O)CCNC(Cc2ccc(F)cc2)C1 (stereo not drawn) [Compound 342]
8,3.46,O=c1[nH]c2ccc(Cl)cc2cc1C(c1ccc(Cl)cc1)C1(O)CCNC(Cc2ccc(F)cc2)C1 (stereo not drawn) [Compound 344]
9,4.38,COc1nc2ccc(Cl)cc2cc1C(c1ccc(Cl)cc1)C1(O)CCNC(Cc2ccc(F)cc2)C1 (stereo not drawn) [Compound 345]
10,4.27,COc1nc2ccc(Cl)cc2cc1C(c1ccc(Cl)cc1)C1(O)CCNC(Cc2ccc(F)cc2)C1 (stereo not drawn) [Compound 347]
11,2.18,COc1nc2ccc(Cl)cc2cc1C(c1ccc(SC)cc1)C1(O)CCNC(c2ccc(F)cc2C)C1 (stereo not drawn) [Compound 353]
12,12.82,C=CC1CC(O)(C(c2ccc(Cl)cc2)c2cc3cc(Br)ccc3[nH]c2=O)CCN1 (stereo not drawn) [Compound 360]
13,3.74,O=c1[nH]c2ccc(Br)cc2cc1C(c1ccc(Cl)cc1)C1(O)CCNC(Cc2ccc(F)cc2)C1 (stereo not drawn) [Compound 365]
14,17.71,COc1nc2ccc(Cl)cc2cc1C(c1ccc(S(C)(=O)=O)cc1)C1(O)CCNC(c2ccc(F)cc2C)C1 (stereo not drawn) [Compound 368]
15,9.12,COc1nc2ccc(Cl)cc2cc1C(c1ccc(S(C)(=O)=O)cc1)C1(O)CCNC(c2ccc(F)cc2C)C1 (stereo not drawn) [Compound 369]
16,3.09,COc1nc2ccc(F)cc2cc1C(c1ccc(Cl)cc1)C1(O)CCNC(Cc2ccccc2)C1 (stereo not drawn) [Compound 370]
17,>12.90,O=c1[nH]c2ccc(F)cc2cc1C(c1ccc(Cl)cc1)C1(O)CCNC(Cc2ccccc2)C1 (stereo not drawn) [Compound 375]
18,3.24,O=c1[nH]c2ccc(F)cc2cc1C(c1ccc(Cl)cc1)C1(O)CCNC(Cc2ccccc2)C1 (stereo not drawn) [Compound 376]
19,14.86,Cc1cc(F)ccc1C1CC(O)(C(c2ccc(S(C)(=O)=O)cc2)c2cc3cc(Cl)ccc3[nH]c2=O)CCN1 (stereo not drawn) [Compound 378]
20,5.16,COc1nc2ccc(Br)cc2cc1C(c1ccc(Cl)cc1)C1(O)CCNC(Cc2ccccn2)C1 (stereo not drawn) [Compound 380]

# The remaining lines, values behind:
row,Compound,IC90 STA B29213 [µg/mL]
1,COc1nc2ccc(S(C)(=O)=O)cc2cc1C(c1cccc(Cl)c1)C1(O)CCNC(Cc2ccc(F)cc2F)C1 (stereo not drawn) [Compound 325],>19.04
2,COc1nc2ccc(S(C)(=O)=O)cc2cc1C(c1cccc(Cl)c1)C1(O)CCNC(Cc2ccc(F)cc2F)C1 (stereo not drawn) [Compound 326],5.37
3,CS(=O)(=O)c1ccc2[nH]c(=O)c(C(c3cccc(Cl)c3)C3(O)CCNC(Cc4ccc(F)cc4F)C3)cc2c1 (stereo not drawn) [Compound 327],>15.31
4,COc1nc2ccc(F)cc2cc1C(c1ccc(Cl)cc1)C1(O)CCNC(c2ccc(F)cc2C)C1 (stereo not drawn) [Compound 330],2.08
5,COc1nc2ccc(F)cc2cc1C(c1ccc(Cl)cc1)C1(O)CCNC(c2ccc(F)cc2C)C1 (stereo not drawn) [Compound 332],4.38
6,CSc1ccc2[nH]c(=O)c(C(c3ccc(Cl)cc3)C3(O)CCNC(Cc4ccc(F)cc4)C3)cc2c1 (stereo not drawn) [Compound 333],2.50
7,COc1nc2ccc(Cl)cc2cc1C(c1ccc(Cl)cc1)C1(O)CCNC(Cc2ccc(F)cc2)C1 (stereo not drawn) [Compound 346],2.13
8,COc1nc2ccc(Cl)cc2cc1C(c1ccc(Cl)cc1)C1(O)CCNC(Cc2ccc(F)cc2)C1 (stereo not drawn) [Compound 348],4.19
9,CSc1ccc(C(c2cc3cc(Cl)ccc3[nH]c2=O)C2(O)CCNC(c3ccc(F)cc3C)C2)cc1 (stereo not drawn) [Compound 349],7.04
10,CSc1ccc(C(c2cc3cc(Cl)ccc3[nH]c2=O)C2(O)CCNC(c3ccc(F)cc3C)C2)cc1 (stereo not drawn) [Compound 350],2.80
11,COc1nc2ccc(Cl)cc2cc1C(c1ccc(SC)cc1)C1(O)CCNC(c2ccc(F)cc2C)C1 (stereo not drawn) [Compound 354],3.95
12,C=CC1CC(O)(C(c2ccc(Cl)cc2)c2cc3cc(Br)ccc3[nH]c2=O)CCN1 (stereo not drawn) [Compound 361],12.82
13,C=CC1CC(O)(C(c2ccc(Cl)cc2)c2cc3cc(Br)ccc3[nH]c2=O)CCN1 (stereo not drawn) [Compound 362],12.82
14,O=c1[nH]c2ccc(Br)cc2cc1C(c1ccc(Cl)cc1)C1(O)CCNC(Cc2ccc(F)cc2)C1 (stereo not drawn) [Compound 363],1.87
15,O=c1[nH]c2ccc(Br)cc2cc1C(c1ccc(Cl)cc1)C1(O)CCNC(Cc2ccc(F)cc2)C1 (stereo not drawn) [Compound 364],3.74
16,COc1nc2ccc(Br)cc2cc1C(c1ccc(Cl)cc1)C1(O)CCNC(Cc2ccccn2)C1 (stereo not drawn) [Compound 379],3.49

# Same assay, conditions: Staphylococcus aureus, ATCC29213, 24 h, 90% inhibitory concentration for bacterial growth, resazurin fluorescence, read-out: IC90 STA B29213
row,IC90 [µg/mL],Compound
1,6.9,O=c1[nH]c2ccc(Cl)cc2cc1C(c1ccc(Cl)cc1)C1(O)CCNC(Cc2ccc(F)cc2)C1 (stereo not drawn) [Compound 343]
2,12.8,C=CC1CC(O)(C(c2ccc(Cl)cc2)c2cc3cc(Br)ccc3[nH]c2=O)CCN1 (stereo not drawn) [Compound 359]
3,> 14.9,Cc1cc(F)ccc1C1CC(O)(C(c2ccc(S(C)(=O)=O)cc2)c2cc3cc(Cl)ccc3[nH]c2=O)CCN1 (stereo not drawn) [Compound 377]

# Test system: Mycobacterium smegmatis (ATCC607)
# Experiment: In-vitro anti-bacterial activity against strain M. Smegmatis ATCC607
# Assay type: cell-based
# Conditions: 90% inhibitory concentration for bacterial growth, 48 hours, Alamar Blue fluorescence
# Outline: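 IC90 (μg/ml) derived from Alamar Blue fluorescence (530/590 nm) after 48 h growth at 37 °C under 5% CO2. About 250 CFU per well in Mueller-Hinton broth faced five-fold serial compound dilutions in BSA-containing wells.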
row,IC90 MSM 607 [µg/mL],Compound
1,12.16,CS(=O)(=O)c1ccc2[nH]c(=O)c(C(c3cccc(Cl)c3)C3(O)CCNC(Cc4ccc(F)cc4F)C3)cc2c1 (stereo not drawn) [Compound 328]
2,7.27,CSc1ccc2[nH]c(=O)c(C(c3cccc(Cl)c3)C3(O)CCNC(Cc4ccc(F)cc4F)C3)cc2c1 (stereo not drawn) [Compound 329]
3,0.94,COc1nc2ccc(F)cc2cc1C(c1ccc(Cl)cc1)C1(O)CCNC(c2ccc(F)cc2C)C1 (stereo not drawn) [Compound 331]
4,7.04,CSc1ccc2[nH]c(=O)c(C(c3ccc(Cl)cc3)C3(O)CCNC(Cc4ccc(F)cc4)C3)cc2c1 (stereo not drawn) [Compound 334]
5,7.00,O=c1[nH]c2ccc(Br)cc2cc1C(c1ccc(Cl)cc1)C1(O)CCNCC1Cc1cccc(F)c1 (stereo not drawn) [Compound 336]
6,3.74,O=c1[nH]c2ccc(Br)cc2cc1C(c1ccc(Cl)cc1)C1(O)CCNC(Cc2ccc(F)cc2)C1 (stereo not drawn) [Compound 342]
7,8.68,O=c1[nH]c2ccc(Cl)cc2cc1C(c1ccc(Cl)cc1)C1(O)CCNC(Cc2ccc(F)cc2)C1 (stereo not drawn) [Compound 344]
8,3.48,COc1nc2ccc(Cl)cc2cc1C(c1ccc(Cl)cc1)C1(O)CCNC(Cc2ccc(F)cc2)C1 (stereo not drawn) [Compound 345]
9,1.70,COc1nc2ccc(Cl)cc2cc1C(c1ccc(Cl)cc1)C1(O)CCNC(Cc2ccc(F)cc2)C1 (stereo not drawn) [Compound 347]
10,1.73,COc1nc2ccc(Cl)cc2cc1C(c1ccc(SC)cc1)C1(O)CCNC(c2ccc(F)cc2C)C1 (stereo not drawn) [Compound 353]
11,6.42,C=CC1CC(O)(C(c2ccc(Cl)cc2)c2cc3cc(Br)ccc3[nH]c2=O)CCN1 (stereo not drawn) [Compound 360]
12,3.74,O=c1[nH]c2ccc(Br)cc2cc1C(c1ccc(Cl)cc1)C1(O)CCNC(Cc2ccc(F)cc2)C1 (stereo not drawn) [Compound 365]
13,14.06,COc1nc2ccc(Cl)cc2cc1C(c1ccc(S(C)(=O)=O)cc1)C1(O)CCNC(c2ccc(F)cc2C)C1 (stereo not drawn) [Compound 368]
14,4.57,COc1nc2ccc(Cl)cc2cc1C(c1ccc(S(C)(=O)=O)cc1)C1(O)CCNC(c2ccc(F)cc2C)C1 (stereo not drawn) [Compound 369]
15,1.55,COc1nc2ccc(F)cc2cc1C(c1ccc(Cl)cc1)C1(O)CCNC(Cc2ccccc2)C1 (stereo not drawn) [Compound 370]
16,12.90,O=c1[nH]c2ccc(F)cc2cc1C(c1ccc(Cl)cc1)C1(O)CCNC(Cc2ccccc2)C1 (stereo not drawn) [Compound 375]
17,2.57,O=c1[nH]c2ccc(F)cc2cc1C(c1ccc(Cl)cc1)C1(O)CCNC(Cc2ccccc2)C1 (stereo not drawn) [Compound 376]
18,11.80,Cc1cc(F)ccc1C1CC(O)(C(c2ccc(S(C)(=O)=O)cc2)c2cc3cc(Cl)ccc3[nH]c2=O)CCN1 (stereo not drawn) [Compound 378]
19,4.10,COc1nc2ccc(Br)cc2cc1C(c1ccc(Cl)cc1)C1(O)CCNC(Cc2ccccn2)C1 (stereo not drawn) [Compound 380]

# Further lines, the molecule ahead of its results:
row,Compound,IC90 MSM 607 [µg/mL]
1,COc1nc2ccc(S(C)(=O)=O)cc2cc1C(c1cccc(Cl)c1)C1(O)CCNC(Cc2ccc(F)cc2F)C1 (stereo not drawn) [Compound 325],19.04
2,COc1nc2ccc(S(C)(=O)=O)cc2cc1C(c1cccc(Cl)c1)C1(O)CCNC(Cc2ccc(F)cc2F)C1 (stereo not drawn) [Compound 326],4.78
3,CS(=O)(=O)c1ccc2[nH]c(=O)c(C(c3cccc(Cl)c3)C3(O)CCNC(Cc4ccc(F)cc4F)C3)cc2c1 (stereo not drawn) [Compound 327],>15.31
4,COc1nc2ccc(F)cc2cc1C(c1ccc(Cl)cc1)C1(O)CCNC(c2ccc(F)cc2C)C1 (stereo not drawn) [Compound 330],1.04
5,COc1nc2ccc(F)cc2cc1C(c1ccc(Cl)cc1)C1(O)CCNC(c2ccc(F)cc2C)C1 (stereo not drawn) [Compound 332],2.20
6,CSc1ccc2[nH]c(=O)c(C(c3ccc(Cl)cc3)C3(O)CCNC(Cc4ccc(F)cc4)C3)cc2c1 (stereo not drawn) [Compound 333],3.53
7,COc1nc2ccc(Cl)cc2cc1C(c1ccc(Cl)cc1)C1(O)CCNC(Cc2ccc(F)cc2)C1 (stereo not drawn) [Compound 346],1.69
8,COc1nc2ccc(Cl)cc2cc1C(c1ccc(Cl)cc1)C1(O)CCNC(Cc2ccc(F)cc2)C1 (stereo not drawn) [Compound 348],1.67
9,CSc1ccc(C(c2cc3cc(Cl)ccc3[nH]c2=O)C2(O)CCNC(c3ccc(F)cc3C)C2)cc1 (stereo not drawn) [Compound 349],7.04
10,CSc1ccc(C(c2cc3cc(Cl)ccc3[nH]c2=O)C2(O)CCNC(c3ccc(F)cc3C)C2)cc1 (stereo not drawn) [Compound 350],1.77
11,COc1nc2ccc(Cl)cc2cc1C(c1ccc(SC)cc1)C1(O)CCNC(c2ccc(F)cc2C)C1 (stereo not drawn) [Compound 354],3.14
12,C=CC1CC(O)(C(c2ccc(Cl)cc2)c2cc3cc(Br)ccc3[nH]c2=O)CCN1 (stereo not drawn) [Compound 361],6.42
13,C=CC1CC(O)(C(c2ccc(Cl)cc2)c2cc3cc(Br)ccc3[nH]c2=O)CCN1 (stereo not drawn) [Compound 362],10.18
14,O=c1[nH]c2ccc(Br)cc2cc1C(c1ccc(Cl)cc1)C1(O)CCNC(Cc2ccc(F)cc2)C1 (stereo not drawn) [Compound 363],3.74
15,O=c1[nH]c2ccc(Br)cc2cc1C(c1ccc(Cl)cc1)C1(O)CCNC(Cc2ccc(F)cc2)C1 (stereo not drawn) [Compound 364],2.97
16,COc1nc2ccc(Br)cc2cc1C(c1ccc(Cl)cc1)C1(O)CCNC(Cc2ccccn2)C1 (stereo not drawn) [Compound 379],2.77

# Same assay, conditions: Mycolicibacterium smegmatis, ATCC607, 48 h, 90% inhibitory concentration for bacterial growth, Alamar Blue fluorescence, read-out: IC90 MSM 607
row,IC90 [µg/mL],Compound
1,4.71,O=c1[nH]c2ccc(Br)cc2cc1C(c1ccc(Cl)cc1)C1(O)CCNC(Cc2ccc(F)cc2)C1 (stereo not drawn) [Compound 341]
2,> 14.9,Cc1cc(F)ccc1C1CC(O)(C(c2ccc(S(C)(=O)=O)cc2)c2cc3cc(Cl)ccc3[nH]c2=O)CCN1 (stereo not drawn) [Compound 377]

# Further lines, the molecule ahead of its results:
row,Compound,IC90 [µg/mL]
1,O=c1[nH]c2ccc(Cl)cc2cc1C(c1ccc(Cl)cc1)C1(O)CCNC(Cc2ccc(F)cc2)C1 (stereo not drawn) [Compound 343],4.35
2,C=CC1CC(O)(C(c2ccc(Cl)cc2)c2cc3cc(Br)ccc3[nH]c2=O)CCN1 (stereo not drawn) [Compound 359],10.2
